4 compounds from patent publication US9980943B2, “Methods of treating muscular dystrophy” (BOARD OF REGENTS OF THE NEVADA SYSTEM OF HIGHER EDUCATION, …, priority 2013, dated 2018) can be followed below.

Holding throughout (assay type): cell-based, mouse
Assay [1] relates to α7 integrin (LacZ reporter in α7βgal+/− myoblasts). The assay is described as follows: Myoblast α7+/LacZ integrin FDG assay (Burkin assay in myoblasts, 96-well). The settings on record: α7+/LacZ myoblasts, 96-well.
Assay [2] deals with β-galactosidase in CMV-LacZ C2C12 myotubes. The assay is described as follows: CMV-LacZ secondary screen in C2C12 myotubes (β-Gal stabilizing assay). The settings on record: C2C12 CMV-LacZ myotubes, fold relative to DMSO. An outline of the steps: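 Dose-response runs at 0.5–40 μM (0.5, 1, 5, 10, 20, 40 μM; N=2 per point) used a clonal C2C12 line carrying CMV-LacZ. Cells were assayed as myoblasts or as differentiated myotubes, and β-galactosidase levels were read with the FDG fluorogenic substrate.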

In assay [3] the test system is α7 integrin (LacZ reporter in α7+/LacZ myotubes). The assay is described as follows: Myotube α7 integrin FDG assay (Burkin assay in myotubes, 96-well). As to conditions: myotubes.
The test system of assay [4] is β-galactosidase in CMV-LacZ C2C12 myoblasts. The assay is described as follows: CMV-LacZ secondary screen in C2C12 myoblasts (β-Gal stabilizing assay). The settings on record: CMV-LacZ C2C12 myoblasts. In outline: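 CMV-LacZ C2C12 line (clonal, FDG-screened); myoblasts/myotubes dosed 0.5–40 μM (0.5, 1, 5, 10, 20, 40 μM); n=2 per point; β-gal stabilization read-out.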

Values joined by “and” are separate entries in the source; they are usually repeats but may differ in a detail not shown here. Equal entries are not always repeated.

For `CC1(C)Cc2c(cnn2-c2cccc(F)c2)C(NC(=O)CCc2cnccn2)C1` (stereo not drawn) [MLS001125260-01], the “Burkin Assay in Myoblasts, signal relative to DMSO” value is 1.21 and 1.071 in assay [1] (0.5 uM); 1.11 and 1.021 in assay [1] (1 uM); 0.9838 and 0.9248 in assay [1] (5 uM); 0.9616 and 0.8893 in assay [1] (10 uM); 1.024 and 0.8738 in assay [1] (20 uM); 0.9057 and 0.8426 in assay [1] (40 uM). The “CMV-LACZ in Myotubes, signal relative to DMSO” value in assay [2] (0.5 uM) was 1.0074; in assay [2] (1 uM) it was 1.0993; in assay [2] (5 uM) it was 0.9614 and 0.9645; in assay [2] (10 uM) it was 1.0994 and 1.065; in assay [2] (20 uM), 1.0000 and 1.0765; in assay [2] (40 uM), 0.9212 and 1.175. For the same compound, the “Burkin Assay in Myotubes, α7 integrin LacZ reporter signal relative to DMSO” value in assay [3] (0.5 uM) was 1.285 and 1.002; in assay [3] (1 uM), 1.208 and 0.8663; in assay [3] (5 uM) it was 0.9677 and 1.022; in assay [3] (10 uM), 1.091 and 0.9402; in assay [3] (20 uM), 0.7634 and 0.9057; in assay [3] (40 uM) it was 0.7451 and 0.9086. In addition, the “CMV-LACZ in Myoblasts (β-galactosidase activity relative to DMSO)” value in assay [4] (0.5 uM) worked out at 1.1581; in assay [4] (1 uM), 1.0584; in assay [4] (5 uM), 1.0114; in assay [4] (10 uM) it was 0.9131; in assay [4] (20 uM), 1.0563; in assay [4] (40 uM) it was 1.2270.

On to `O=C(Nc1cc(-c2nc3ccccc3s2)ccc1Cl)c1ccc2c(c1)OCO2` [MLS000560266-01], for which the “Burkin Assay in Myoblasts, signal relative to DMSO” value was 0.953 in assay [1] (0.5 uM); 0.8556 in assay [1] (1 uM); 1.026 in assay [1] (5 uM); 1.13 in assay [1] (10 uM); 0.8321 in assay [1] (20 uM); 0.5589 in assay [1] (40 uM). Besides, the “CMV-LACZ in Myotubes, signal relative to DMSO” value turned out to be 0.9724 in assay [2] (0.5 uM); 1.0000 in assay [2] (1 uM); 1.0253 in assay [2] (5 uM); 1.0224 in assay [2] (10 uM); 1.0520 in assay [2] (20 uM); 0.9470 in assay [2] (40 uM). Further, the “Burkin Assay in Myotubes, α7 integrin LacZ reporter signal relative to DMSO” value came out at 0.9891 in assay [3] (0.5 uM); 0.8824 in assay [3] (1 uM); 1.037 in assay [3] (5 uM); 1.185 in assay [3] (10 uM); 0.6706 in assay [3] (20 uM); 0.6059 in assay [3] (40 uM). Further, the “CMV-LACZ in Myoblasts (β-galactosidase activity relative to DMSO)” value worked out at 0.9030 in assay [4] (0.5 uM); 0.8123 in assay [4] (1 uM); 0.9405 in assay [4] (5 uM); 0.9991 in assay [4] (10 uM); 1.1095 in assay [4] (20 uM); 1.0484 in assay [4] (40 uM).

Regarding `Cc1nc(Nc2ccccc2F)c2oc3ccccc3c2n1` [MLS001215123-01], the “Burkin Assay in Myoblasts, signal relative to DMSO” value was 1.075 in assay [1] (0.5 uM); 0.9708 in assay [1] (1 uM); 1.1241 in assay [1] (5 uM); 1.155 in assay [1] (10 uM); 0.665 in assay [1] (20 uM); 0.5252 in assay [1] (40 uM). Besides, the “CMV-LACZ in Myotubes, signal relative to DMSO” value in assay [2] (0.5 uM) was found to be 1.1657; in assay [2] (1 uM), 1.1457; in assay [2] (5 uM), 1.1153; in assay [2] (10 uM), 1.2929; in assay [2] (20 uM), 1.0710; in assay [2] (40 uM) it was 1.1030. The “Burkin Assay in Myotubes, α7 integrin LacZ reporter signal relative to DMSO” value was determined as 0.9466 in assay [3] (0.5 uM); 0.901 in assay [3] (1 uM); 1.049 in assay [3] (5 uM); 1.137 in assay [3] (10 uM); 0.6938 in assay [3] (20 uM); 0.816 in assay [3] (40 uM). For the same compound, the “CMV-LACZ in Myoblasts (β-galactosidase activity relative to DMSO)” value in assay [4] (0.5 uM) is on record as 1.0530; in assay [4] (1 uM), 0.8837; in assay [4] (5 uM), 1.0888; in assay [4] (10 uM) it was 1.1943; in assay [4] (20 uM), 1.2639; in assay [4] (40 uM), 1.0098.

With `O=c1[nH]c2ccccc2nc1-c1c[nH]c2ccccc12` [MLS001181936-01], the “Burkin Assay in Myoblasts, signal relative to DMSO” value in assay [1] (0.5 uM) worked out at 0.8443; in assay [1] (1 uM) it was 0.7562; in assay [1] (5 uM), 0.8573; in assay [1] (10 uM), 0.8219; in assay [1] (20 uM), 0.51; in assay [1] (40 uM), 0.3285. Further, the “CMV-LACZ in Myotubes, signal relative to DMSO” value was 1.0705 in assay [2] (0.5 uM); 0.9886 in assay [2] (1 uM); 0.9246 in assay [2] (5 uM); 1.0274 in assay [2] (10 uM); 0.9020 in assay [2] (20 uM); 1.0280 in assay [2] (40 uM). In addition, the “Burkin Assay in Myotubes, α7 integrin LacZ reporter signal relative to DMSO” value in assay [3] (0.5 uM) is 0.9197; in assay [3] (1 uM), 0.7633; in assay [3] (5 uM), 0.9856; in assay [3] (10 uM) it was 1.024; in assay [3] (20 uM) it was 0.5868; in assay [3] (40 uM), 0.7387. For the same compound, the “CMV-LACZ in Myoblasts (β-galactosidase activity relative to DMSO)” value in assay [4] (0.5 uM) is listed as 0.8487; in assay [4] (1 uM), 0.9273; in assay [4] (5 uM), 0.7292; in assay [4] (10 uM), 0.8296; in assay [4] (20 uM), 0.7863; in assay [4] (40 uM), 0.6130.
